This passage reports IC50 results from patent US7626021B2, “Fused ring heterocycle kinase modulators” (SGX Pharmaceuticals, Inc., priority 2004, dated 2009).

The assay concerns the target T1, MET kinase (Homo sapiens, UniProt P08581).
T1 construct: Sf9 insect cell culture expressing the kinase domain of human Met; 6x Histidine tag (TEV-cleavable) (cleaved yes); made in house; host or cells: Sf9 insect cells
Briefly: MET luminescence-based enzyme assay (Kinase-Glo). The format is biochemical. The source says:
In addition to the c-Abl PK/LDH coupled assay (above), homogeneous luminescence-based inhibitor screening assays were developed for c-Abl, MET, AurA, and PDK1 kinases (among others). Each of these assays made use of an ATP depletion assay (Kinase-Glo™, Promega Corporation, Madison, Wis.) to quantitate kinase activity. The Kinase-Glo™ format uses a thermostable luciferase to generate luminescent signal from ATP remaining in solution following the kinase reaction. The luminescent signal is inversely correlated with the amount of kinase activity.
MET Luminescence-based Enzyme Assay
Materials: Poly Glu-Tyr (4:1) substrate (Sigma Cat# P-0275), ATP (Sigma Cat#A-3377, FW=551), HEPES buffer, pH 7.5, Bovine serum albumin (BSA) (Roche 92423420), MgCl2, Staurosporine (Streptomyces sp. Sigma Cat#85660-1MG), white Costar 384-well flat-bottom plate (VWR Cat#29444-088). […]
Standard Assay Setup for 384-well format (20 μl kinase reaction, 40 μl detection reaction): 10 mM MgCl2; 0.3 mg/ml poly Glu-Tyr; 0.1% BSA; 1 μl test compound (in DMSO); 0.4 μg/ml MET kinase; 10 μM ATP; 100 mM HEPES buffer. […] Kinase reactions were incubated at 21° C. for 60 min, then 20 μl of Kinase-Glo™ reagent were added to each well to quench the kinase reaction and initiate the luminescence reaction. After a 20 min incubation at 21° C., the luminescence was detected in a plate-reading luminometer.
A general note: In Kinase-Glo more light means more ATP remaining.

T1 sequence (P08581 1078-1345 limits assumed): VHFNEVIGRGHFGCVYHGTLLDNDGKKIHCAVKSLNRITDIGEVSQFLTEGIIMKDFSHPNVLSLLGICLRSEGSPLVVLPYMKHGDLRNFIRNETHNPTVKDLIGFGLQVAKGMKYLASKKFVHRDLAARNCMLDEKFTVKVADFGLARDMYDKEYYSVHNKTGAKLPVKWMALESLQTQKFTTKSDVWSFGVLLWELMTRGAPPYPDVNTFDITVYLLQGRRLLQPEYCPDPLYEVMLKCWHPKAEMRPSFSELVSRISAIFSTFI

`CCN1CCN(C(=O)c2cccc(-c3cnc4[nH]nc(-c5cc(F)ccc5OC)c4c3)c2)CC1`: the IC50 lay in the range of 1 to 10 µM.

Broadly, the IC50 is the concentration needed to halve the response being measured.
